In patent publication US4897506A, “Isolation of alpha-l-aspartyl-l-phenylalanine methyl ester from aqueous medium” (Mitsui Toatsu Chemicals, Incorporated, priority 1987, dated 1990):
Residues, ends and D or L forms follow the SMILES beside them.

Experiments:
[1] = Method for Testing Solubilization: time required for completely dissolving crushed α-APM sample in water; assay type: physicochemical; details: 26±2° C.; for time required for completely dissolving the sample (solubilization test): 250 mg crushed sample in 250 ml purified water, magnetic stirrer 350-360 rpm, stirring and standing alternated every 30 seconds; for Solubilization (minutes), Table 1 / Solubilization (min), Table 2: 250 mg in 250 ml purified water, stirring/standing every 30 seconds
Protocol: Crushed α-APM sample (250 mg) is poured into 250 ml of purified water at 26±2° C. with stirring by a magnetic stirrer at 350- 360 rpm. Stirring and standing are alternately repeated for every 30 seconds and the time required for completely dissolving the sample is measured.

[2] = crystallized by cooling without forced flow, Japanese Laid-Open Patent No. 177952/1983; cited from earlier work
[3] = pH; cited from earlier work
[4] = Thermal stability in solution (diketopiperazine formation); assay type: physicochemical; details: aqueous medium, temperatures higher than 70° C.
[5] = Hard block formation on drying; assay type: physicochemical; details: dry crystalline α-APM
[6] = Solubilization of conventionally recrystallized α-APM (background); assay type: physicochemical; details: 250 mg in 250 ml water, room temperature
Excerpt: α-APM purified by conventional recrystallization methods has the disadvantage of poor solubilization (rate of solution) in water.

Structure (SMILES)	time required for completely dissolving the sample (solubilization test) [1] [min]	also measured
COC(=O)[C@H](Cc1ccccc1)NC(=O)[C@@H](N)CC(=O)O [Example 4, α-L-aspartyl-L-phenylalanine methyl ester] (H-Asp-Phe-OMe)	≤ 5	
COC(=O)[C@H](Cc1ccccc1)NC(=O)[C@@H](N)CC(=O)O [Example 5, α-L-aspartyl-L-phenylalanine methyl ester] (H-Asp-Phe-OMe)		Solubilization (minutes), Table 1 ([1]; listed as Ex. 5): 6.5 min
COC(=O)[C@H](Cc1ccccc1)NC(=O)[C@@H](N)CC(=O)O [Example 6, α-L-aspartyl-L-phenylalanine methyl ester] (H-Asp-Phe-OMe)		Solubilization (minutes), Table 1 ([1]; listed as Ex. 6): 6.5 min
COC(=O)[C@H](Cc1ccccc1)NC(=O)[C@@H](N)CC(=O)O [Example 7, α-L-aspartyl-L-phenylalanine methyl ester] (H-Asp-Phe-OMe)		Solubilization (minutes), Table 1 ([1]; listed as Ex. 7): 4.5 min
COC(=O)[C@H](Cc1ccccc1)NC(=O)[C@@H](N)CC(=O)O [Example 8, α-L-aspartyl-L-phenylalanine methyl ester] (H-Asp-Phe-OMe)		Solubilization (minutes), Table 1 ([1]; listed as Ex. 8): 5.5 min
COC(=O)[C@H](Cc1ccccc1)NC(=O)[C@@H](N)CC(=O)O [Example 9, α-L-aspartyl-L-phenylalanine methyl ester] (H-Asp-Phe-OMe)		Solubilization (minutes), Table 1 ([1]; listed as Ex. 9): 7.5 min
COC(=O)[C@H](Cc1ccccc1)NC(=O)[C@@H](N)CC(=O)O [Example 10, α-L-aspartyl-L-phenylalanine methyl ester] (H-Asp-Phe-OMe)		Solubilization (minutes), Table 1 ([1]; listed as Ex. 10): 5.5 min
COC(=O)[C@H](Cc1ccccc1)NC(=O)[C@@H](N)CC(=O)O [Example 11, α-L-aspartyl-L-phenylalanine methyl ester] (H-Asp-Phe-OMe)	6.5	
COC(=O)[C@H](Cc1ccccc1)NC(=O)[C@@H](N)CC(=O)O [Example 15, α-L-aspartyl-L-phenylalanine methyl ester] (H-Asp-Phe-OMe)	5.5	
COC(=O)[C@H](Cc1ccccc1)NC(=O)[C@@H](N)CC(=O)O [Example 16, α-L-aspartyl-L-phenylalanine methyl ester] (H-Asp-Phe-OMe)	≤ 5	
COC(=O)[C@H](Cc1ccccc1)NC(=O)[C@@H](N)CC(=O)O [Example 17, α-L-aspartyl-L-phenylalanine methyl ester] (H-Asp-Phe-OMe)	≤ 5	
COC(=O)[C@H](Cc1ccccc1)NC(=O)[C@@H](N)CC(=O)O [Example 19, α-L-aspartyl-L-phenylalanine methyl ester] (H-Asp-Phe-OMe)		Solubilization (min), Table 2 [1]: 5.5 min
COC(=O)[C@H](Cc1ccccc1)NC(=O)[C@@H](N)CC(=O)O [Example 20, α-L-aspartyl-L-phenylalanine methyl ester] (H-Asp-Phe-OMe)		Solubilization (min), Table 2 [1]: 5.5 min
COC(=O)[C@H](Cc1ccccc1)NC(=O)[C@@H](N)CC(=O)O [Example 21, α-L-aspartyl-L-phenylalanine methyl ester] (H-Asp-Phe-OMe)		Solubilization (min), Table 2 [1]: 5.5 min
COC(=O)[C@H](Cc1ccccc1)NC(=O)[C@@H](N)CC(=O)O [Example 22, α-L-aspartyl-L-phenylalanine methyl ester] (H-Asp-Phe-OMe)		Solubilization (min), Table 2 [1]: 5.0 min
COC(=O)[C@H](Cc1ccccc1)NC(=O)[C@@H](N)CC(=O)O [Example 23, α-L-aspartyl-L-phenylalanine methyl ester] (H-Asp-Phe-OMe)	≤ 5	
COC(=O)[C@H](Cc1ccccc1)NC(=O)[C@@H](N)CC(=O)O [compound 2, α-L-aspartyl-L-phenylalanine methyl ester, reference compound] (H-Asp-Phe-OMe)	11.5	
COC(=O)[C@H](Cc1ccccc1)NC(=O)[C@@H](N)CC(=O)O [compound 4, α-L-aspartyl-L-phenylalanine methyl ester, reference compound] (H-Asp-Phe-OMe)	13.5	
COC(=O)[C@H](Cc1ccccc1)NC(=O)[C@@H](N)CC(=O)O [compound 5, α-L-aspartyl-L-phenylalanine methyl ester, reference compound] (H-Asp-Phe-OMe)		Solubilization (minutes), Table 1 ([1]; listed as Comp. Ex. 5): 12.5 min
COC(=O)[C@H](Cc1ccccc1)NC(=O)[C@@H](N)CC(=O)O [compound 6, α-L-aspartyl-L-phenylalanine methyl ester, reference compound] (H-Asp-Phe-OMe)		Solubilization (minutes), Table 1 ([1]; listed as Comp. Ex. 6): 13.5 min
COC(=O)[C@H](Cc1ccccc1)NC(=O)[C@@H](N)CC(=O)O [compound 7, α-L-aspartyl-L-phenylalanine methyl ester, reference compound] (H-Asp-Phe-OMe)	13.5	
COC(=O)[C@H](Cc1ccccc1)NC(=O)[C@@H](N)CC(=O)O [compound 8, α-L-aspartyl-L-phenylalanine methyl ester, reference compound] (H-Asp-Phe-OMe)	12.5	
COC(=O)[C@H](Cc1ccccc1)NC(=O)[C@@H](N)CC(=O)O [compound 9, α-L-aspartyl-L-phenylalanine methyl ester, reference compound] (H-Asp-Phe-OMe)	12	
COC(=O)[C@H](Cc1ccccc1)NC(=O)[C@@H](N)CC(=O)O [α-APM, α-L-aspartyl-L-phenylalanine methyl ester] (H-Asp-Phe-OMe)		solubilization compared to conventionally crystallized product [2]: excellent solubilization as compared to conventionally crystallized product; isoelectric point [3]: 5.6; thermal stability in solution [4]: diketopiperazine compound is undesirably formed as by-product; hard block formation in the dry state [5]: forms a hard block in the dry state; time required to dissolve completely ([6]; crushed powder recrystallized from 50 vol. % aqueous methanol, stirring and standing every 30 seconds): more than 15 minutes; undissolved α-APM after 5 minutes ([6]; recrystallized from 50 vol. % aqueous methanol): a significant amount of undissolved α-APM remains even after 5 minutes

More lines, main results first:

time required for completely dissolving the sample (solubilization test) [1] [min]	Structure (SMILES)	also measured
≤ 5	COC(=O)[C@H](Cc1ccccc1)NC(=O)[C@@H](N)CC(=O)O [Example 1, α-L-aspartyl-L-phenylalanine methyl ester] (H-Asp-Phe-OMe)	
≤ 5	COC(=O)[C@H](Cc1ccccc1)NC(=O)[C@@H](N)CC(=O)O [Example 2, α-L-aspartyl-L-phenylalanine methyl ester] (H-Asp-Phe-OMe)	
≤ 5	COC(=O)[C@H](Cc1ccccc1)NC(=O)[C@@H](N)CC(=O)O [Example 3, α-L-aspartyl-L-phenylalanine methyl ester] (H-Asp-Phe-OMe)	
5.5	COC(=O)[C@H](Cc1ccccc1)NC(=O)[C@@H](N)CC(=O)O [Example 12, α-L-aspartyl-L-phenylalanine methyl ester] (H-Asp-Phe-OMe)	
5.5	COC(=O)[C@H](Cc1ccccc1)NC(=O)[C@@H](N)CC(=O)O [Example 13, α-L-aspartyl-L-phenylalanine methyl ester] (H-Asp-Phe-OMe)	
6.5	COC(=O)[C@H](Cc1ccccc1)NC(=O)[C@@H](N)CC(=O)O [Example 14, α-L-aspartyl-L-phenylalanine methyl ester] (H-Asp-Phe-OMe)	
≤ 5	COC(=O)[C@H](Cc1ccccc1)NC(=O)[C@@H](N)CC(=O)O [Example 18, α-L-aspartyl-L-phenylalanine methyl ester] (H-Asp-Phe-OMe)	
12.5	COC(=O)[C@H](Cc1ccccc1)NC(=O)[C@@H](N)CC(=O)O [compound 1, α-L-aspartyl-L-phenylalanine methyl ester, reference compound] (H-Asp-Phe-OMe)	
12.5	COC(=O)[C@H](Cc1ccccc1)NC(=O)[C@@H](N)CC(=O)O [compound 3, α-L-aspartyl-L-phenylalanine methyl ester, reference compound] (H-Asp-Phe-OMe)	
